From paper PMC8501799, “Constitutive signal bias mediated by the human GHRHR splice variant 1” (Proceedings of the National Academy of Sciences of the …, 2021)

What was measured:
WT GHRHR = target: T1, WT GHRHR (Homo sapiens, UniProt Q02643); experiment: cAMP accumulation; assay type: cell-based; conditions: for Emax: HEK-293T, HEK293T; for ΔLog (τ/KA): operational model, τ corrected by cell surface expression
T1 construct: Comparison of SV1 with full-length or truncated GHRHR that lacks ECD or the first 89 residues (B); expressed in transfected cells; host or cells: HEK293T
T1 sequence (Q02643 23-423): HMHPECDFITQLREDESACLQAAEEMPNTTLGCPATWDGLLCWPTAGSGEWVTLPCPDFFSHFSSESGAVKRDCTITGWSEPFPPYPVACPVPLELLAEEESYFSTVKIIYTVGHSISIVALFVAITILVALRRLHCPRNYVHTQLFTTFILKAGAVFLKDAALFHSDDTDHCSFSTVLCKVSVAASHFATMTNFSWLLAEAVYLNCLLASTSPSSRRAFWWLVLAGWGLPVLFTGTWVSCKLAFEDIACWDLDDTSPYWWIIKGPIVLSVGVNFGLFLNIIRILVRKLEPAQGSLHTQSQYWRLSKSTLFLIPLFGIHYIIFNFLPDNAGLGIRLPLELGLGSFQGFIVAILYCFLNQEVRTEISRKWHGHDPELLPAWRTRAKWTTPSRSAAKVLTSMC
Procedure: (§1) GHRH-stimulated cAMP accumulation was measured by a LANCE Ultra cAMP kit (PerkinElmer). Briefly, HEK293T cells (24 h after transfection with SV1 or GHRHR) or prostate cancer cells were digested by 0.2% (wt/vol) EDTA and washed once with Dulbecco’s phosphate-buffered saline (PBS). Cells were then resuspended with stimulation buffer (Hanks’ balanced salt solution [HBSS] supplemented with 5 mM HEPES, 0.5 mM IBMX, and 0.1% [wt/vol] bovine serum albumin [BSA], pH 7.4) to a density of 0.6 million cells per milliliter and added to 384-well white plates (3,000 cells per well). […] The reaction was stopped by adding 5 μL Eu-cAMP tracer and 5 μL ULight-anti-cAMP. After 1 h RT incubation, TR-FRET signals (excitation: 320 nm, emission: 615 and 665 nm) were measured by an Envision plate reader (PerkinElmer). cAMP concentrations were interpolated by a standard curve.
(§2) All functional study data were analyzed using Prism 7 (GraphPad) and presented as means ± SEM from at least three independent experiments. Concentration-response curves were evaluated with a three-parameter logistic equation. The significance was determined with either two-tailed Student’s t test or one-way ANOVA, and P < 0.05 is considered statistically significant.
(§3) Table S2. Effects of residue mutation or truncation in the ECD of GHRHR on GHRH-induced cAMP […]
(§4) Mutant pEC50 Emax (% WT GHRHR) expression ΔLog (τ/KA) […]
(§5) cAMP accumulation data were analyzed using a three-parameter logistic equation to determine pEC50 and Emax values. pEC50 is the negative logarithm of the molar concentration of agonist that induced half the maximal response. Emax for mutants is expressed as a percentage of the WT GHRHR. Data were analyzed by nonlinear regression using the operational model equation to determine t he logR values (logτ/KA, i.e., logarithm of the transduction ratio). τ is the effi cacy value of the agonist and was corrected by cell surface expression of the receptor. KA is dissociation constant. Changes in transduction ratio (ΔlogR) were calculated to determine the relative effectiveness of the mutants. All values are means ± S.E.M. of at le ast three ind ep en dent experiments (n = 3-5) conducted in quadruplicate. Statistical analysis was carried out by comparing the control responses in the WT GHRHR. **, P < 0.01 and ***, P < 0.001, determined by one-way […]
(§6) Table S4. Effects of residue mutation in the ligand-binding pocket of SV1 on GHRH-induced cAMP […]
(§7) Mutant pEC50 Emax Cell surface expression ΔLog (τ/KA) […]
(§8) effectiveness of the mutants. All values are means ± S.E.M. of four independent experiments (n = 4) conducted in quadruplicate. Statistical analysis was carried out by comparing the control responses in the WT-SV1. *, P < 0.05, **, P < 0.01 and ***, P < 0.001, determined by one-way

SV1 = target: T2, SV1 (Homo sapiens, UniProt Q02643); experiment: cAMP accumulation; assay type: cell-based; conditions: mean ± SEM; for Emax: HEK-293T, HEK293T; for ΔLog (τ/KA): operational model, τ corrected by cell surface expression
T2 sequence (Q02643 90-423 limits assumed): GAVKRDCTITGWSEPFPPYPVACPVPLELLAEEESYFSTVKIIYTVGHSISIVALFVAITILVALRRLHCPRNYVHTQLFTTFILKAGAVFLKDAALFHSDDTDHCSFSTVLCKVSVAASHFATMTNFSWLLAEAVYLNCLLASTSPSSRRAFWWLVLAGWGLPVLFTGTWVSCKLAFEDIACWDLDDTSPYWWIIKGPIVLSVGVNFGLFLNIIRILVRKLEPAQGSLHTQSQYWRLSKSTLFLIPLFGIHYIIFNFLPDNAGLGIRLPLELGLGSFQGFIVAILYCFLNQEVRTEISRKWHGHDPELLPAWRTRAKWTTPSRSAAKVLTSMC
Procedure: as §1, §2, §3, §4, §5, §6, §7, §8

SV1/Gs = experiment: Gs activation (G protein NanoBiT assay); assay type: cell-based, human; conditions: HEK293T
Procedure: HEK293T cells were seeded at a density of 30,000 cells per well into 96-well culture plates pretreated with poly-D-lysine hydrobromide. After incubation for 24 h to reach 70% to 80% confluence, the cells were transiently transfected with GHRHR or SV1, Gαs-LgBiT, Gβ1, and Gγ2-SmBiT, at a 2:1:5:5 mass ratio. Twenty-four hours after transfection, cells were washed once and incubated for 30 min at 37 °C with HBSS buffer (pH 7.4) supplemented with 0.1% BSA and 10 mM HEPES. They were then reacted with coelenterazine H (5 μM) for 1 h at RT. Luminescence signals were measured using an Envision plate reader at 15-s intervals (25 °C). […] Data were corrected to baseline and vehicle-treated samples.
as §2
Table S1. Effects of SV1 on GHRH-induced Gs activation.
Plasmid pEC50 Emax (% WT GHRHR)
G protein NanoBiT data were analyzed using a three-parameter logistic equation to d et ermine pEC50 and Emax values. pEC50 is the negative logarithm of the molar concentration of agonist that induced half the maximal response. Emax is expressed as a percentage of GHRHR/Gs response.
All values are means ± S.E.M. of five independent experiments (n = 5) conducted in duplicate. One-way ANOVA was used to determine statistical significance (*P < 0.05). WT, wild-type; NA, not

[1] = Table S4, n = 4 in quadruplicate

## CC[C@H](C)[C@H](NC(=O)[C@H](C)NC(=O)[C@H](CC(=O)O)NC(=O)[C@H](C)NC(=O)[C@@H](N)Cc1ccc(O)cc1)C(=O)N[C@@H](Cc1ccccc1)C(=O)N[C@H](C(=O)N[C@@H](CC(N)=O)C(=O)N[C@@H](CO)C(=O)N[C@@H](Cc1ccc(O)cc1)C(=O)N[C@@H](CCCNC(=N)N)C(=O)N[C@@H](CCCCN)C(=O)N[C@H](C(=O)N[C@@H](CC(C)C)C(=O)NCC(=O)N[C@@H](CCC(N)=O)C(=O)N[C@@H](CC(C)C)C(=O)N[C@@H](CO)C(=O)N[C@@H](C)C(=O)N[C@@H](CCCNC(=N)N)C(=O)N[C@@H](CCCCN)C(=O)N[C@@H](CC(C)C)C(=O)N[C@@H](CC(C)C)C(=O)N[C@@H](CCC(N)=O)C(=O)N[C@@H](CC(=O)O)C(=O)N[C@H](C(=O)N[C@@H](CCSC)C(=O)N[C@@H](CO)C(=O)N[C@@H](CCCNC(=N)N)C(=O)N[C@@H](CCC(N)=O)C(=O)N[C@@H](CCC(N)=O)C(=O)NCC(=O)N[C@@H](CCC(=O)O)C(=O)N[C@@H](CO)C(=O)N[C@@H](CC(N)=O)C(=O)N[C@@H](CCC(N)=O)C(=O)N[C@@H](CCC(=O)O)C(=O)N[C@@H](CCCNC(=N)N)C(=O)NCC(=O)N[C@@H](C)C(=O)N[C@@H](CCCNC(=N)N)C(=O)N[C@@H](C)C(=O)N[C@@H](CCCNC(=N)N)C(=O)N[C@@H](CC(C)C)C(N)=O)[C@@H](C)CC)C(C)C)[C@@H](C)O [GHRH, growth hormone–releasing hormone]
WT GHRHR; [1]
  Emax: 100%
WT GHRHR; Table S2, mean ± SEM, n = 3-5 in quadruplicate
  Emax: 100 ± 1.81%
WT GHRHR; Table S2, relative to WT GHRHR, mean ± SEM
  ΔLog (τ/KA): 0 ± 0.05
WT GHRHR; Table S4, mean ± SEM, n = 4
  ΔLog (τ/KA): 0.00 ± 0.09
SV1; [1]
  Emax: 102 ± 2.28%
SV1; Table S2, n = 3-5 in quadruplicate
  Emax: 105 ± 2.2%
SV1; Table S2, relative to WT GHRHR
  ΔLog (τ/KA): -2.98 ± 0.04
SV1; Table S4, n = 4
  ΔLog (τ/KA): -3.93 ± 0.10
SV1/Gs; AUC 0 to 25 min, mean ± SEM, n = 5 in duplicate, * P < 0.05
  Emax of Gs activation: 56.67 ± 13.79 % WT GHRHR
SV1/Gs; AUC 0 to 25 min, three-parameter logistic, mean ± SEM, n = 5 in duplicate, * P < 0.05
  pEC50 of Gs activation: 5.63 ± 0.36
SV1/Gs; compared with GHRHR, Fig. 1A
  ability of SV1 to activate Gs: significantly impaired
